PMC13516207 (Pharmaceuticals, 2026)
Bridge positions count the residues as written; N and C are the ends. Square brackets hold non-standard residues; d marks the D form. Side chains are listed from the residue outwards. Peptide text beside a SMILES is read from it. * marks the point of attachment. NOTA = O=C(O)CN1CCN(CC(=O)O)CCN(CC(=O)*)CC1; 2Nal = N[C@@H](Cc1ccc2ccccc2c1)C(=O)O; Lys(iPr) = CC(C)NCCCC[C@H](N)C(=O)O

Biological target: human CXCR4 (Homo sapiens, UniProt P61073)
Assay: CXCL12-AF647 competition binding on Jurkat cells, flow cytometry
Details: competition with CXCL12-AF647, mean ± SD
Method: Subsequently, 50 µL containing 0.25 × 10^6 Jurkat cells was added to each well, followed by 50 µL human CXCL12-AF647 (100 ng/mL; Almac, Craigavon, UK). Plates were incubated for 30 min at room temperature in the dark. After incubation, the cells were washed twice by centrifugation (400× g, 5 min) to replace the supernatant and subsequently fixed with 1% paraformaldehyde (Merck, Darmstadt, Germany). Fluorescence intensity was quantified by flow cytometry, and IC50 values were obtained by nonlinear regression analysis. All measurements were performed with at least four technical replicates.

Chain of human CXCR4 (P61073 whole entry): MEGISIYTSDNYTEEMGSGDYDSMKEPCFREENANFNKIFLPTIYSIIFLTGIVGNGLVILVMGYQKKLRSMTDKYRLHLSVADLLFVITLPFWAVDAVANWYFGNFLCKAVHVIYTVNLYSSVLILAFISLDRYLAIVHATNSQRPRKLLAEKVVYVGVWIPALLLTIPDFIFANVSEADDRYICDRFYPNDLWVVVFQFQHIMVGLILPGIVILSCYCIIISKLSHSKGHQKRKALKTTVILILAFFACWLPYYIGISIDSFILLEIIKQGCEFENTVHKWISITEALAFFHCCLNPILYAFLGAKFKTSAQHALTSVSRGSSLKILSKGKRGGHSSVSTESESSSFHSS

SMILES | IC50
CC(C)NCCCC[C@H](NC(=O)[C@H]1CCC(=O)N[C@@H](Cc2ccccc2)C(=O)N[C@@H](Cc2ccc(O)cc2)C(=O)N[C@@H](CCCCNC(C)C)C(=O)N[C@H](CCCNC(=N)N)C(=O)N[C@@H](Cc2ccc3ccccc3c2)C(=O)NCC(=O)N1)C(N)=O [LY2510924, cyclo[Phe-Tyr-Lys(iPr)-D-Arg-2-Nal-Gly-D-Glu]-Lys(iPr)-NH2] (FY[Lys(iPr)][dR][2Nal]G[dE][Lys(iPr)]-NH2; lactam N-7) | 0.36 ± 0.07 nM
CC(C)NCCCC[C@@H]1NC(=O)[C@H](Cc2ccc(O)cc2)NC(=O)[C@H](Cc2ccccc2)NC(=O)CC[C@H](C(=O)N[C@@H](CCCCNC(C)C)C(=O)N[C@@H](CCCCNC(=O)[C@H](CCC(=O)O)NC(=O)[C@H](CCC(=O)O)NC(=O)[C@H](CCC(=O)O)NC(=O)CN2CCN(CC(=O)O)CCN(CC(=O)O)CC2)C(N)=O)NC(=O)CNC(=O)[C@H](Cc2ccc3ccccc3c2)NC(=O)[C@@H](CCCNC(=N)N)NC1=O [[^natF]AlF-NOTA-SC] (FY[Lys(iPr)][dR][2Nal]G[dE][Lys(iPr)]K([Glu-Glu-Glu-NOTA])-NH2; lactam N-7) | 14.4 ± 2.65 nM
